According to patent publication US8188152B2, “2-aminoalcohols for the treatment of neurodegenerative diseases” (Biocopea Limited, priority 2005, dated 2012):

Test system: SJL mouse EAE model of multiple sclerosis
Test: Experimental Allergic Encephalomyelitis (EAE) in SJL mice, clinical neurological scoring 0-5
Format: in vivo
Details: 10 mg/kg orally once a day
Description: Experimental Allergic Encephalomyelitis (EAE) is a central nervous system, autoimmune, demyleinating disease, that mimics many aspects of multiple sclerosis. Acute models of murine EAE are often utilised to evaluate the efficacy of therapeutics.
Acclimatised SJL mice were sensitised by a subcutaneous injection proteolipid protein (PLP) in Freund's complete adjuvant (CFA) acting as an encephalitogenic inoculum. Innoculum was administered subcutaneously at a concentration of 125 μg PLP/300 μg CFA in a volume of 200 μl. 48 hours later, an intraperitoneal injection of pertussis toxin (PTX) was administered at a dose of 20 μg/kg, to increase blood-brain barrier permeability.
(+)-Erythro-2-tert-butylamino-1-(3-chlorophenyl)-propan-1-ol hydrochloride and copoxane were administered from the first day of the experiment and once a day until the end. (+)-Erythro-2-tert-butylamino-1-(3-chlorophenyl)-propan-1-ol hydrochloride was administered orally at a dose of 10 mg/kg. Copaxone was administered intraperitoneally at a dose of 25 mg/kg. Throughout the experiment, careful clinical examinations and body weights were taken to observe the well being of the animal. In addition, clinical scoring of the EAE symptoms was taken to the classical 0-5 scale, as follows: • 0 Normal reactions • 1 Tail weakness • 2 Hind leg weakness and paresis • 3 Hind leg paralysis • 4 Quadriplegia • 5 Moribund/death Results

C[C@H](NC(C)(C)C)[C@H](O)c1cccc(Cl)c1.Cl [(+)-erythro-2-tert-butylamino-1-(3-chlorophenyl)-propan-1-ol hydrochloride]
improvement in symptoms / disease resolution (compared to the vehicle): more rapid improvement in symptoms
maximal neurologic score (versus vehicle, 0-5 scale): no improvement
